Tests used:
[1] = system: TFEB; assay: TFEB nuclear translocation assay; type: cell-based; details: Homo sapiens; HeLa wt or HeLa TRPML1 KO cells, treated for 2 hrs; ratio of nuclear to ring-region TFEB intensity
Summary of the method: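 HeLa wild-type or TRPML1 KO cells treated 2 h with compound at 37 °C, PFA-fixed, immunostained for TFEB (Alexa 488) with Hoechst nuclei. Imaged at ×20, four fields/well. Value is ratio of nuclear to perinuclear-ring TFEB intensity, with nuclei counts.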

[2] = system: THP-1 cells; assay: Lamp1 lysosomal exocytosis assay; type: cell-based; details: Homo sapiens, 55 min, 55 min incubation, top dose 20 μM
Summary of the method: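 THP-1 cells (1e5/well) exposed to a 7-point 3-fold compound series, top final 20 μM, for 55 min at 37°C. Surface Lamp1 then stained with Lamp1-PE on ice in buffer containing 80 μM Dynasore, and read by flow cytometry as PE geometric mean on live, sytox-negative singlets.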

SMILES	EC50 [1]	EC50 [2]
CN(C)S(=O)(=O)c1ccc(S(=O)(=O)N2CC3(CCN(C(=O)OCC4CC4)CC3)n3nccc32)cc1 [Compound I-145, cyclopropylmethyl 1′-[4-(dimethylsulfamoyl)benzenesulfonyl]-1′,2′-dihydrospiro[piperidine-4,3′-pyrazolo[1,5-a]imidazole]-1-carboxylate]	≥ 10 µM	≥ 5.01 µM
O=C(C1CC1)N1CCC2(CC1)CN(S(=O)(=O)c1ccc(C(F)F)cc1)c1ccccc12 [Compound I-162, 1′-cyclopropanecarbonyl-1-[4-(difluoromethyl)benzenesulfonyl]-1,2-dihydrospiro[indole-3,4′-piperidine]]	≥ 10 µM	≥ 5.01 µM
CC(F)(F)CN1CCC2(CC1)CN(S(=O)(=O)c1ccc(C(F)F)cc1)c1ccccc12 [Compound I-122, 1-((4-(difluoromethyl)phenyl)sulfonyl)-1′-(2,2-difluoropropyl)spiro[indoline-3,4′-piperidine]]	≤ 2 µM	≥ 5.01 µM
O=C(Oc1ccccc1)N1CCC2(CC1)CN(S(=O)(=O)c1ccc(C(F)F)cc1)c1ccccc12 [Compound I-169, phenyl 1-((4-(difluoromethyl)phenyl)sulfonyl)spiro[indoline-3,4′-piperidine]-1′-carboxylate]	≤ 2 µM	≥ 5.01 µM
COC1CCC2(CC1)CN(S(=O)(=O)c1ccc(S(=O)(=O)N(C)C)cc1)c1ccccc12 (centres unmarked) [Compound I-119, 4-({4-methoxy-1′,2′-dihydrospiro[cyclohexane-1,3′-indol]-1′-yl}sulfonyl)-N,N-dimethylbenzene-1-sulfonamide]	≤ 2 µM	1.01 to 5 µM
COc1ccc(NC(=O)N2CCC3(CC2)CN(S(=O)(=O)c2ccc(C(F)F)cc2)c2ccccc23)c(OC)c1 [Compound I-227, 1-((4-(difluoromethyl)phenyl)sulfonyl)-N-(2,4-dimethoxyphenyl)spiro[indoline-3,4′-piperidine]-1′-carboxamide]	2.01 to 8 µM	≥ 5.01 µM
COc1cccc(NC(=O)N2CCC3(CC2)CN(S(=O)(=O)c2ccc(C(F)F)cc2)c2ccccc23)c1OC [Compound I-228, 1-((4-(difluoromethyl)phenyl)sulfonyl)-N-(2,3-dimethoxyphenyl)spiro[indoline-3,4′-piperidine]-1′-carboxamide]	≤ 2 µM	≥ 5.01 µM
O=C(OCc1ccccc1)N1CCC2(CC1)CN(S(=O)(=O)c1ccc(C(F)F)cc1)c1cccnc12 [Compound I-134, benzyl 1′-[4-(difluoromethyl)benzenesulfonyl]-1′,2′-dihydrospiro[piperidine-4,3′-pyrrolo[3,2-b]pyridine]-1-carboxylate]	≤ 2 µM	≤ 0.5 µM

Further lines, results first:

EC50 [1]	EC50 [2]	SMILES
≥ 10 µM	≥ 5.01 µM	O=C(OCc1ccccc1)N1CCC2(CC1)CN(C(=O)Oc1ccc(C(F)F)cc1)c1ccccc12 [Compound I-249, 1′-benzyl 1-(4-(difluoromethyl)phenyl) spiro[indoline-3,4′-piperidine]-1,1′-dicarboxylate]
≤ 2 µM	0.51 to 1 µM	CN(C)S(=N)(=O)c1ccc(S(=O)(=O)N2CC3(CCCCC3)c3ccccc32)cc1 (centres unmarked) [Compound I-129, N,N-dimethyl-4-(spiro[cyclohexane-1,3′-indolin]-1′-ylsulfonyl)benzenesulfonimidamide]
≥ 10 µM	≥ 5.01 µM	O=C(OCc1ccccc1)N1CCC2(CC1)CN(C(=O)c1ccccc1)c1ccccc12 [Compound I-184, benzyl 1-benzoyl-1,2-dihydrospiro[indole-3,4′-piperidine]-1′-carboxylate]
2.01 to 8 µM	≥ 5.01 µM	O=S(=O)(c1ccc2c(c1)CCC2)N1CC2(CCCC2)c2ccccc21 [Compound I-67, 1′-((2,3-dihydro-1H-inden-5-yl)sulfonyl)spiro[cyclopentane-1,3′-indoline]]
≤ 2 µM	≤ 0.5 µM	O=C(CCc1ccccc1)N1CCC2(CC1)CN(S(=O)(=O)c1ccc(C(F)F)cc1)c1ccccc12 [Compound I-174, 1-(1-((4-(difluoromethyl)phenyl)sulfonyl)spiro[indoline-3,4′-piperidin]-1′-y1)-3-phenylpropan-1-one]
